Source: publication PMC12040169 (PLOS Biology, 2025)
In brackets after ≈: the same amount, converted by molar mass. Like-named read-outs stand apart in the source and are kept apart here.

Columns and labels:
in vitro [1] = assay: in vitro; design: Viability of infected HeLa host cells, resazurin conversion, bulk resorufin fluorescence relative to DMSO; conditions: human, hela cells; bulk resorufin, mean of 3
[2] = system: T1, CTL2-GFP (C. trachomatis L2/434/Bu, GFP-expressing); assay: microbe, parasite or virus in culture; design: C. trachomatis growth in HeLa, dose-response, mean of bulk GFP fluorescence and imaged total inclusion area; conditions: Chlamydia trachomatis, HeLa, 28.5 h; mean of GFP and inclusion area
T1 construct: L2/434/Bu, GFP-expressing
In short: (§1)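 GFP/resorufin bulk fluorescence read → fix → Hoechst stain → high-content imaging. Inclusion total area + count = growth proxy; nuclei count = host viability proxy. MIC calc per earlier method.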

B. adolescentis = system: T2, B. adolescentis; assay: microbe, parasite or virus in culture; design: Microbial growth in liquid dilution assay, OD600 relative to DMSO control; conditions: Bifidobacterium adolescentis; estimated IC50; read-out: B. adolescentis, IC50 (µM) estimate
T2 construct: DSM 20083
Excerpt: (§2) Compound effects on commensal microbes in dilution assay As our objective was to discover compounds that inhibit Chlamydia selectively but spare commensal bacteria, we further tested 15 of our top compounds (c1e–c10e and c1v–c5v) against five bacterial species, Escherichia coli, Lactobacillus reuteri, Enterococcus faecalis, Bacteroides thetaiotaomicron, and Bifidobacterium adolescentis, representing the four dominating phyla of the human gut microbiota. […] Exceptions were c3e and c5e, which at 30 µM were inhibitory to some species. […] Of note, c1e–c3e had little or no effect on the growth of an even larger set of species of gut bacteria, also including Blautia coccoides, Prevotella copri, Prevotella histicola, Bacteroides fragilis, and Dubosiella newyorkensis, when tested in radial diffusion assays, in which the bacteria were exposed to compounds for 24–48 h before measurements of growth inhibition zones (S10B Fig and S5G Data).

B. thetaiotaomicron = system: T3, B. thetaiotaomicron; assay: microbe, parasite or virus in culture; design: Microbial growth in liquid dilution assay, OD600 relative to DMSO control; conditions: Bacteroides thetaiotaomicron; estimated IC50; read-out: B. thetaiotaomicron, IC50 (µM) estimate
T3 construct: DSM 2079
Excerpt: as §2

E. coli = system: T4, E. coli; assay: microbe, parasite or virus in culture; design: Microbial growth in liquid dilution assay, OD600 relative to DMSO control; conditions: Escherichia coli; estimated IC50; read-out: E. coli, IC50 (µM) estimate
T4 construct: DSM 301
Excerpt: as §2

E. faecalis = system: T5, E. faecalis; assay: microbe, parasite or virus in culture; design: Microbial growth in liquid dilution assay, OD600 relative to DMSO control; conditions: Enterococcus faecalis; estimated IC50; read-out: E. faecalis, IC50 (µM) estimate
T5 construct: DSM 20478
Excerpt: as §2

L. reuteri = system: T6, L. reuteri; assay: microbe, parasite or virus in culture; design: Microbial growth in liquid dilution assay, OD600 relative to DMSO control; conditions: Limosilactobacillus reuteri; estimated IC50; read-out: L. reuteri, IC50 (µM) estimate
T6 construct: DSM 20016
Excerpt: as §2

[3] = system: T1, CTL2-GFP (C. trachomatis L2/434/Bu, GFP-expressing); assay: microbe, parasite or virus in culture; design: species or system HeLa; C. trachomatis growth in HeLa, dose-response, mean of bulk GFP fluorescence and imaged total inclusion area; conditions: Chlamydia trachomatis, 28.5 h; mean of GFP and inclusion area
In short: as §1

in vitro [4] = assay: in vitro; design: Viability of infected HeLa host cells, resazurin conversion, bulk resorufin fluorescence relative to DMSO; conditions: human, hela cells; bulk resorufin, single well
[5] = system: T7, C. trachomatis L2/434/Bu expressing GFP (CTL2-GFP); assay: microbe, parasite or virus in culture; design: C. trachomatis GFP growth in infected HeLa cells, bulk GFP fluorescence normalised to DMSO; conditions: Chlamydia trachomatis, HeLa, 26 h; read-out: IC50 (µM), bulk GFP fluorescence
T7 construct: L2/434/Bu GFP intracellular growth in HeLa cells
Protocol: (§3) MICs were calculated as described above.

[6] = system: T7, C. trachomatis L2/434/Bu expressing GFP (CTL2-GFP); assay: microbe, parasite or virus in culture; design: C. trachomatis total inclusion area by high-content imaging, normalised to DMSO; conditions: Chlamydia trachomatis, HeLa, 28.5 h; read-out: IC50 (µM), total inclusion area
In short: as §1

[7] = system: T1, CTL2-GFP (C. trachomatis L2/434/Bu, GFP-expressing); assay: microbe, parasite or virus in culture; design: Intracellular C. trachomatis growth in HeLa cells, bulk GFP fluorescence relative to DMSO; conditions: Chlamydia trachomatis, HeLa, 28.5 h; bulk GFP
Protocol: as §3

[8] = system: T1, CTL2-GFP (C. trachomatis L2/434/Bu, GFP-expressing); assay: microbe, parasite or virus in culture; design: species or system HeLa; Intracellular C. trachomatis growth in HeLa cells, bulk GFP fluorescence relative to DMSO; conditions: Chlamydia trachomatis, 28.5 h; bulk GFP
Protocol: as §3

Row | SMILES | viability at 28.5 h, 0.000416667 µM (in vitro [1]) [%] | viability at 28.5 h, 0.00125 µM (in vitro [1]) [%] | viability at 28.5 h, 0.00375 µM (in vitro [1]) [%] | viability at 28.5 h, 0.0123333 µM (in vitro [1]) [%] | viability at 28.5 h, 0.037 µM (in vitro [1]) [%] | viability at 28.5 h, 0.111 µM (in vitro [1]) [%] | viability at 28.5 h, 0.333 µM (in vitro [1]) [%] | viability at 28.5 h, 1 µM (in vitro [1]) [%] | viability at 28.5 h, 3 µM (in vitro [1]) [%] | viability at 28.5 h, 10 µM (in vitro [1]) [%] | viability at 28.5 h, 30 µM (in vitro [1]) [%] | IC50 [2] [µM] | IC50 (B. adolescentis) [µM] | IC50 (B. thetaiotaomicron) [µM] | IC50 (E. coli) [µM] | IC50 (E. faecalis) [µM] | IC50 (L. reuteri) [µM] | MIC [3] [µM] | further results
1 | COc1c(Br)cc2c(cc(C)n2-c2ccccc2)c1OCC(O)CNC(C)C (centres unmarked) [c5e] | 87.7 | 89.3 | 86.3 | 90.9 | 88.9 | 91.6 | 87.6 | 92.4 | 89.5 | 97 | 0 | 0.375 | 10.3 | > 30 | > 30 | > 30 | > 30 | 0.767 (≈ 0.343 µg/mL) | 
2 | O=C(c1cccc(S(=O)(=O)F)c1)N1CCCCC1 [CBK074224] |  |  |  |  |  |  |  |  |  |  |  |  |  |  |  |  |  |  | viability at 28.5 h, 10 µM (in vitro [4]): 96.6%
3 | O=C(NN=Cc1ccc([N+](=O)[O-])o1)c1nc(-c2ccccc2)cc(-c2ccccc2)n1 [c3e] |  |  |  |  |  |  |  |  |  |  |  |  |  |  |  |  |  |  | IC50 [5]: 0.118 µM; IC50 [6]: 0.133 µM
4 | Cc1ccc(C(=O)/C=C/Nc2ccc(S(=O)(=O)Nc3onc(C)c3C)cc2)cc1 [c4v] |  |  |  |  |  |  |  |  |  |  |  |  | > 30 | > 30 | > 30 | > 30 | > 30 |  | IC50 [7]: 1.32 µM; MIC [8]: 1.88 µM (≈ 0.775 µg/mL)
5 | N#Cc1c(Nc2cccc(C(F)(F)F)c2)sc(C(=O)c2ccc3c(c2)OCO3)c1N [c8e] | 88 | 94.7 | 88.4 | 85.7 | 86 | 87.3 | 85.7 | 94.3 | 81.6 | 77.1 | 62.5 | 0.567 | > 30 | > 30 | > 30 | > 30 | > 30 | 0.936 (≈ 0.404 µg/mL) | 
6 | O=C(Nc1ccc(F)c(F)c1)NC1CCC2CN(CCOc3ccccc3)CC2C1 (centres unmarked) [c9e] | 90.2 | 92.6 | 90.8 | 91.5 | 89 | 92 | 91.6 | 94.6 | 92.9 | 95.3 | 102 | 0.641 | > 30 | > 30 | > 30 | > 30 | > 30 | 2.63 (≈ 1.09 µg/mL) | 
7 | Cc1cc(NS(=O)(=O)c2ccc(NC(=O)COc3ccc(Cl)c(C)c3)cc2)no1 [c3v] |  |  |  |  |  |  |  |  |  |  |  |  | > 30 | > 30 | > 30 | > 30 | > 30 |  | IC50 [7]: 0.773 µM; MIC [8]: 0.829 µM (≈ 0.361 µg/mL)
